Measured values taken from publication PMC9399058, “Preclinical evaluation of FAP-2286 for fibroblast activation protein targeted radionuclide imaging and therapy” (European Journal of Nuclear Medicine and Molecular Imaging, 2022).
Read-outs that look alike come from different tables or passages of the source.

Assays:
[1] = Plasma stability assay, mouse plasma; format: in vitro ADME; details: 24 h at 37 °C
Method: FAP-2286 was incubated in human or mouse plasma at 37 °C for 24 h. Compound concentration was measured using HPLC–MS/MS (Agilent Technologies) and percent concentration remaining was calculated.
FAP-2286 was incubated in 50 µL of plasma with 3.8% sodium citrate as anticoagulant at a concentration of 10 µM. After 1, 2, 4, and 24 hours incubation at 37°C a suitable internal standard was added. FAP-2286 with plasma proteins were precipitated using 150 µL of a precipitation agent consisting of 77% 0.1 M zinc sulfate solution and 23% acetonitrile. Precipitation was carried out on ice for 30 minutes. […]
A nonincubated plasma sample spiked with 10 µM sample concentration was prepared in the same way and was used as the reference. […] The samples were analyzed using an Agilent 1290 UHPLC system coupled to an Agilent 6530 QTOF mass spectrometer.
For the quantitative data analysis, the Agilent Quantitative Analysis B.08.00 software (RRID:SCR_015040) was used. […] The concentration of the compound was determined by external matrix calibration using 6 calibration samples (1, 2.5, 5, 7.5, 10, and 12.5 µM). […] Carryover was determined by analyzing the blank sample directly after the highest calibration sample and comparing the determined peak areas. Recovery was calculated as the ratio between the spiked concentration of the recovery sample and the concentration calculated from the peak area of this sample.

HEK-FAP xenografts = experiment: SPECT/CT biodistribution and tumor dosimetry of 177Lu-labeled tracers in HEK-FAP tumor-bearing mice; format: in vivo, mouse; details: 177Lu-labeled, HEK-FAP tumors
Method: (§1) HEK-FAP cell line was generated using the vector pTAR to insert FAP complementary DNA by recombinase-mediated cassette exchange into the pre-tagged HEK293 cells (InSCREENeX). For in vivo HEK-FAP studies, female nude or SCID beige mice (Charles River Laboratories) were subcutaneously implanted with 5 × 10^6 HEK-FAP cells in 150 µL serum-free media:Matrigel (1:1) (Corning). For the patient-derived xenograft (PDX) efficacy study, female NMRI nu/nu mice (Janvier Labs) were subcutaneously implanted with Sarc4809 fragments (Experimental Pharmacology & Oncology Berlin-Buch). All animal experiments were carried out under licenses approved by the respective authorities and in compliance with guidelines on animal welfare.
(§2) Thirty megabecquerels (30 MBq/nmol) ^111In-FAP-2286 (n = 9) or ^111In-FAPI-04 (n = 6) was injected intravenously (IV) into HEK-FAP tumor-bearing mice and the distribution of the radiotracers was assessed using the NanoSPECT/computed tomography (CT) system (Mediso). For PET imaging, 10 MBq of ^68Ga-FAP-2286 or ^68Ga-FAPI-46 (10 MBq/nmol) was given IV into HEK-FAP tumor-bearing mice (n = 3) followed by PET/CT analysis using the nanoScan PET/CT system (Mediso). For SPECT imaging of ^177Lu-labeled FAP-2286 or ^177Lu-labeled FAPI-46, 30 MBq was administered IV (30 MBq/nmol; n = 3) and the distribution of the radiotracers was assessed using the nanoScan SPECT/CT system (Mediso).
(§3) The animal studies were conducted in different laboratories. ^111In-Imaging and efficacy studies using the HEK-FAP model and different doses of ^177Lu-FAP-2286 as well as the Sarc4809 PDX efficacy study took place at Berlin Experimental Imaging Center (BERIC, Germany). The Sarc4809 model was originally derived from a primary lesion of undifferentiated pleomorphic sarcoma. These studies were performed in either female swiss nude (Charles River Laboratories, France – ^111In-Imaging), NMRI nude (Janvier Labs, France – PDX efficacy study) or SCID beige mice (Charles River Laboratories, Germany - ^111In-Imaging). ^68Ga-Imaging and comparative studies with ^177Lu labeled FAP-2286 and FAPI-46 were performed at Minerva Imaging ApS, Denmark using female athymic nude mice (Charles River Laboratories, Germany). For all experiments animals were ordered with an age of approximately 6 weeks. Animals were allowed an acclimatization period of at least one week prior to inoculation. Animals were housed in an animal room with 12 hours light and 12 hours darkness with free access to food and water. A maximum number of 5 animals were housed in the same cage, cages were equipped with nesting material and plastic or paper houses for hiding. Each cage was labeled with study ID, group and animal numbers and test compound. For efficacy studies animals were randomized according to tumor size. Animals were checked daily for any signs of illness or abnormal behavior. Main humane endpoints were defined as tumor volumes > 1500 mm^3, tumor burden > 10% of animal weight, body weight loss >15% and tumor ulceration. When reaching one of these criteria the animal was sacrificed by cervical dislocation. All animal experiments were approved either by the Regional Office for Health and Social Affairs Berlin (LAGeSo), Germany or the National Animal Experiments Inspectorate under the Ministry of Environment and Food of Denmark.
(§4) Imaging and image analysis were performed as described. During the scan, mice were kept under isoflurane anesthesia, and body temperature was maintained under warm air. The following acquisition parameters were used for the respective imaging modality.
(§5) For quantification, VivoQuant (InviCRO) was used to draw regions of interest (ROIs) in relevant tissues, with a ROI drawn over the left ventricle of the heart to serve as blood pool surrogate. […]

[2] = PET/CT biodistribution of 68Ga-labeled tracers in HEK-FAP tumor-bearing mice; details: mouse, in vivo, 10 MBq IV, n=3
Method: as §1
as §2, with “(Mediso). […]” for “(Mediso). For PET imaging, 10 MBq of ^68Ga-FAP-2286 or ^68Ga-FAPI-46 (10 MBq/nmol) was given IV into HEK-FAP tumor-bearing mice (n = 3) followed by PET/CT analysis using the nanoScan PET/CT system (Mediso).”, “(Mediso). […]” for “(Mediso).”
as §5

neoplastic lesions = test system: neoplastic lesions; parameters: method as in PMID 34168013; details: patients with pancreatic, breast, ovarian, or colorectal carcinomas ref 51; cited from earlier work
[3] = SPECT/CT biodistribution of 111In-labeled tracers in HEK-FAP tumor-bearing mice; format: in vivo, mouse; details: mouse; for tissue uptake at 1 h / tissue uptake at 3 h / tissue uptake at 6 h / tissue uptake at 24 h / tissue uptake at 48 h: in vivo
Method: as §1, §2, §3, §4, §5

## CCCCCC(=O)N[C@H]1CSCc2cc(CSCCNC(=O)CN3CCN(CC(=O)O)CCN(CC(=O)O)CCN(CC(=O)O)CC3)cc(c2)CSC[C@@H](C(=O)O)NC(=O)[C@H](Cc2ccccc2)NC(=O)[C@H](CCC(N)=O)NC(=O)[C@H]([C@@H](C)O)NC(=O)[C@@H]2CCCN2C(=O)[C@@H]2CCCN2C1=O [FAP-2286]
[1]
  percent retained in mouse plasma: 85%
HEK-FAP xenografts
  fold higher TIAC compared to FAPI-46: 12 fold
  fold higher absorbed dose delivered to the tumors compared to FAPI-46: 9 fold

## CCCCCC(=O)N[C@H]1CSCc2cc(CSCCNC(=O)CN3CCN(CC(=O)O)CCN(CC(=O)O)CCN(CC(=O)O)CC3)cc(c2)CSC[C@@H](C(=O)O)NC(=O)[C@H](Cc2ccccc2)NC(=O)[C@H](CCC(N)=O)NC(=O)[C@H]([C@@H](C)O)NC(=O)[C@@H]2CCCN2C(=O)[C@@H]2CCCN2C1=O [^68Ga-FAP-2286, metal not drawn]
[2]; 0.5 h after administration
  tissue uptake at 0.5 h: 9.8 %ID/g
[2]; 3 h after injection
  tissue uptake at 3 h: 10.8 %ID/g
Neoplastic lesions
  PET/CT uptake in patients: significant uptake in neoplastic lesions and low presence in normal tissues

## CCCCCC(=O)N[C@H]1CSCc2cc(CSCCNC(=O)CN3CCN(CC(=O)O)CCN(CC(=O)O)CCN(CC(=O)O)CC3)cc(c2)CSC[C@@H](C(=O)O)NC(=O)[C@H](Cc2ccccc2)NC(=O)[C@H](CCC(N)=O)NC(=O)[C@H]([C@@H](C)O)NC(=O)[C@@H]2CCCN2C(=O)[C@@H]2CCCN2C1=O [^111In-FAP-2286, metal not drawn]
[3]; female, tumor and kidney, iv, 30 MBq, total radioactivity, tumor-to-kidney, 1 h p.i., read-out: T/K ratio (mean ± SD)
  tissue to tissue ratio at 1 h: 3 ± 1.3
[3]; female, tumor and kidney, iv, 30 MBq, total radioactivity, tumor-to-kidney, 3 h p.i., read-out: T/K ratio (mean ± SD)
  tissue to tissue ratio at 3 h: 4.6 ± 1.9
[3]; female, tumor and kidney, iv, 30 MBq, total radioactivity, tumor-to-kidney, 6 h p.i., read-out: T/K ratio (mean ± SD)
  tissue to tissue ratio at 6 h: 5 ± 2.8
[3]; female, tumor and kidney, iv, 30 MBq, total radioactivity, tumor-to-kidney, 24 h p.i., read-out: T/K ratio (mean ± SD)
  tissue to tissue ratio at 24 h: 5.9 ± 3.3
[3]; female, tumor and kidney, iv, 30 MBq, total radioactivity, tumor-to-kidney, 48 h p.i., read-out: T/K ratio (mean ± SD)
  tissue to tissue ratio at 48 h: 7.5 ± 4.8
[3]; 1 h p.i., read-out: Salivary Glands %ID/g (mean ± SD)
  tissue uptake at 1 h: 0.6 ± 0.4 %ID/g
[3]; 3 h p.i., read-out: Salivary Glands %ID/g (mean ± SD)
  tissue uptake at 3 h: 0.2 ± 0.1 %ID/g
[3]; 6 h p.i., read-out: Salivary Glands %ID/g (mean ± SD)
  tissue uptake at 6 h: 0.2 ± 0.2 %ID/g
[3]; heart, 1 h p.i., read-out: Blood Pool Surrogate %ID/g (mean ± SD)
  tissue uptake at 1 h: 0.4 ± 0.1 %ID/g
[3]; heart, 3 h p.i., read-out: Blood Pool Surrogate %ID/g (mean ± SD)
  tissue uptake at 3 h: 0.1 ± 0.1 %ID/g
[3]; heart, 6 h p.i., read-out: Blood Pool Surrogate %ID/g (mean ± SD)
  tissue uptake at 6 h: 0.1 %ID/g
[3]; iv, 1 h p.i., 30 MBq IV, HEK-FAP mice, n=9, read-out: Tumor %ID/g (mean ± SD)
  tissue uptake at 1 h: 11.1 ± 4.3 %ID/g
[3]; iv, 1 h p.i., 30 MBq IV, HEK-FAP mice, read-out: Kidney %ID/g (mean ± SD)
  tissue uptake at 1 h: 3.9 ± 1 %ID/g
[3]; iv, 1 h p.i., 30 MBq IV, HEK-FAP mice, read-out: Liver %ID/g (mean ± SD)
  tissue uptake at 1 h: 0.3 ± 0.1 %ID/g
[3]; iv, 3 h p.i., 30 MBq IV, HEK-FAP mice, read-out: Kidney %ID/g (mean ± SD)
  tissue uptake at 3 h: 2.5 ± 0.4 %ID/g
[3]; iv, 3 h p.i., 30 MBq IV, HEK-FAP mice, read-out: Liver %ID/g (mean ± SD)
  tissue uptake at 3 h: 0.2 ± 0.1 %ID/g
[3]; iv, 6 h p.i., 30 MBq IV, HEK-FAP mice, n=9, read-out: Tumor %ID/g (mean ± SD)
  tissue uptake at 6 h: 11.4 ± 6.6 %ID/g
[3]; iv, 6 h p.i., 30 MBq IV, HEK-FAP mice, read-out: Kidney %ID/g (mean ± SD)
  tissue uptake at 6 h: 2.2 ± 0.3 %ID/g
[3]; iv, 6 h p.i., 30 MBq IV, HEK-FAP mice, read-out: Liver %ID/g (mean ± SD)
  tissue uptake at 6 h: 0.1 %ID/g
[3]; iv, 24 h p.i., 30 MBq IV, HEK-FAP mice, n=9, read-out: Tumor %ID/g (mean ± SD)
  tissue uptake at 24 h: 9.7 ± 5.3 %ID/g
[3]; iv, 24 h p.i., 30 MBq IV, HEK-FAP mice, read-out: Kidney %ID/g (mean ± SD)
  tissue uptake at 24 h: 1.6 ± 0.2 %ID/g
[3]; iv, 24 h p.i., 30 MBq IV, HEK-FAP mice, read-out: Liver %ID/g (mean ± SD)
  tissue uptake at 24 h: 0.1 %ID/g
[3]; iv, 48 h p.i., 30 MBq IV, HEK-FAP mice, n=9, read-out: Tumor %ID/g (mean ± SD)
  tissue uptake at 48 h: 9.1 ± 5 %ID/g
[3]; iv, 48 h p.i., 30 MBq IV, HEK-FAP mice, read-out: Kidney %ID/g (mean ± SD)
  tissue uptake at 48 h: 1.3 ± 0.2 %ID/g
[3]; iv, 48 h p.i., 30 MBq IV, HEK-FAP mice, read-out: Liver %ID/g (mean ± SD)
  tissue uptake at 48 h: 0.1 %ID/g
[3]; non-tumor bearing shoulder, 1 h p.i., read-out: Shoulder %ID/g (mean ± SD)
  tissue uptake at 1 h: 1.2 ± 0.6 %ID/g
[3]; non-tumor bearing shoulder, 3 h p.i., read-out: Shoulder %ID/g (mean ± SD)
  tissue uptake at 3 h: 0.4 ± 0.1 %ID/g
[3]; non-tumor bearing shoulder, 6 h p.i., read-out: Shoulder %ID/g (mean ± SD)
  tissue uptake at 6 h: 0.1 ± 0.1 %ID/g
[3]; non-tumor bearing shoulder, 24 h p.i., read-out: Shoulder %ID/g (mean ± SD)
  tissue uptake at 24 h: 0.1 %ID/g
[3]; non-tumor bearing shoulder, 48 h p.i., read-out: Shoulder %ID/g (mean ± SD)
  tissue uptake at 48 h: 0.1 %ID/g
